Results as given in patent US20260008780A1, “SUBSTITUTED 3,4-DIHYDROISOQUINOLIN-1(2H)-ONE DERIVATIVES AND RELATED USES” (NodThera Limited, priority 2022, published 2026).

Test system: IL-1β release upon NLRP3 activation in peripheral blood mononuclear cells (PBMC)
Assay: PBMC IC50 Determination Assay
Type: cell-based
Conditions: Homo sapiens; PBMC from buffy coats, LPS 3 h, compound 30 min, then ATP (5 mM) or nigericin (10 μM) 1 h; IL-1β in media by ELISA (Protocol A) or HTRF (Protocol B)
Experimental: The compounds of the present disclosure were tested for their inhibitory activity against IL-1β release upon NLRP3 activation in peripheral blood mononuclear cells (PBMC).
Protocol A. PBMC were isolated from buffy coats by density gradient centrifugation on Histopaque-1077 (Sigma, cat no. 10771). Isolated cells were seeded into the wells of a 96-well plate and incubated for 3 h with lipopolysaccharide (LPS). Following medium exchange, the compounds of the present disclosure were added (a single compound per well) and the cells were incubated for 30 min. Next, the cells were stimulated either with ATP (5 mM) or nigericin (10 μM) for 1 h and the cell culture media from the wells were collected for further analysis.
The release of IL-1β into the media was determined by a quantitative detection of IL-1β in the media using an IL-1p enzyme-linked immunosorbent assay (ELISA) Ready-SET-Go!, eBioscience cat. No. 88-7261-88. Briefly, in a first step, high affinity binding plates (Corning, Costar 9018 or NUNC Maxisorp Cat No. 44-2404) were coated overnight at 4° C. with specific capture antibody included in the kit (anti-human IL-1β ref 14-7018-68). Subsequently, plates were blocked with blocking buffer for 1 h at room temperature (rt) and after washing with a buffer (PBS with 0.05% Tween-20) incubated with protein standard and culture media. After 2 h of incubation at rt, plates were washed and incubated with biotinylated detection antibody included in the kit (anti-human IL-1β Biotin ref. 33-7110-68) for 1 h at rt. Plates were washed and incubated with HRP-streptavidin for 30 min at rt and washed again. The signal was developed after addition of 3,3′,5,5′-tetramethylbenzidine-peroxidase (TMB) until colour appeared and the reaction was stopped by 2 M H2SO4. A microplate spectrophotometer (BioTek) was used to detect signals with 450 nm. The detection range of IL-1β ELISA was […].
Protocol B. PBMC were isolated from buffy coats by density gradient centrifugation on Histopaque-1077 (Sigma, cat no. 10771). Isolated cells were seeded into the wells (280,000 cells/well) of a 96-well plate and incubated for 3 h with lipopolysaccharide (LPS, 1 μg/mL diluted 1000× from a 1 mg/mL stock solution). The compounds of the present disclosure were added (a single compound per well) and the cells were incubated for 30 min. Next, the cells were stimulated with ATP (5 mM final concentration diluted 20× from a 100 mM stock solution) for 1 h and the cell culture media from the wells were collected for further analysis.
The release of IL-1β into the media was determined by quantitative detection of IL-1β in the media using HTRF®, CisBio cat. No. 62HIL1BPEH. Briefly, cell culture supernatant were dispensed directly into the assay plate containing antibodies labelled with the HTRF® donor and acceptor. A microplate spectrophotometer (BMG) was used to detect signals at 655 nm and 620 nm. The detection range of IL-1β HTRF® was 39-6500 μg/mL.

Compared with `CCc1cc2c(s1)C(=O)N(CC(=O)Nc1ccc3nncn3n1)CC21CC1` [Compound 45, 2-{2′-Ethyl-7′-oxo-6′,7′-dihydro-5′H-spiro[cyclopropane-1,4′-thieno[2,3-c]pyridin]-6′-yl}-N-{[1,2,4]triazolo[4,3-b]pyridazin-6-yl}acetamide], `CCc1cc2c(s1)C(=O)N(CC(=O)Nc1ccc3nncn3c1)CC21CC1` [Compound 47, 2-{2′-Ethyl-7′-oxo-6′,7′-dihydro-5′H-spiro[cyclopropane-1,4′-thieno[2,3-c]pyridin]-6′-yl}-N-{[1,2,4]triazolo[4,3-a]pyridin-6-yl}acetamide] is higher in IC50: 0.1 to 1 µM for the first, 1 to 3 µM for the second.

First: CCc1cc2c(s1)C(=O)N(CC(=O)Nc1ncco1)CC21CC1 [Compound 46, 2-{2′-Ethyl-7′-oxo-6′,7′-dihydro-5′H-spiro[cyclopropane-1,4′-thieno[2,3-c]pyridin]-6′-yl}-N-(1,3-oxazol-2-yl)acetamide]
Second: CCc1cc2c(s1)C(=O)N(CC(=O)Nc1nccc(=O)[nH]1)CC21CC1 [Compound 51, 2-{2′-Ethyl-7′-oxo-6′,7′-dihydro-5′H-spiro[cyclopropane-1,4′-thieno[2,3-c]pyridin]-6′-yl}-N-(6-oxo-1,6-dihydropyrimidin-2-yl)acetamide]
The IC50 of the first is lower: 0.1 to 1 µM for the first, 3 to 10 µM for the second.

First: CCc1cc2c(s1)C(=O)N(CC(=O)Nc1ccc(OC)nc1)CC21CC1 [Compound 48, 2-{2′-Ethyl-7′-oxo-6′,7′-dihydro-5′H-spiro[cyclopropane-1,4′-thieno[2,3-c]pyridin]-6′-yl}-N-(6-methoxypyridin-3-yl)acetamide]
Second: CCc1cc2c(s1)C(=O)N(CC(=O)Nc1ncc(OC)cn1)CC21CC1 [Compound 61, 2-{2′-Ethyl-7′-oxo-6′,7′-dihydro-5′H-spiro[cyclopropane-1,4′-thieno[2,3-c]pyridin]-6′-yl}-N-(5-methoxypyrimidin-2-yl)acetamide]
The IC50 of the first is higher: 3 to 10 µM for the first, 0.1 to 1 µM for the second. The second is the more potent here.

`CCc1cc2c(s1)C(=O)N(CC(=O)Nc1ccc3[nH]c(=O)n(C)c3c1)CC21CC1` [Compound 49, 2-{2′-Ethyl-7′-oxo-6′,7′-dihydro-5′H-spiro[cyclopropane-1,4′-thieno[2,3-c]pyridin]-6′-yl}-N-(3-methyl-2-oxo-2,3-dihydro-1H-1,3-benzodiazol-5-yl)acetamide] and `CCc1cc2c(s1)C(=O)N(CC(=O)Nc1ncc3[nH]c(=O)n(C)c3n1)CC21CC1` [Compound 68, 2-(2′-Ethyl-7′-oxo-5′H-spiro[cyclopropane-1,4′-thieno[2,3-c]pyridin]-6′(7′H)-yl)-N-(9-methyl-8-oxo-8,9-dihydro-7H-purin-2-yl)acetamide] fall in the same range of IC50: 3 to 10 µM for the first, 3 to 10 µM for the second.

Compared with `CCc1cc2c(s1)C(=O)N(CC(=O)Nc1ccncn1)CC21CC1` [Compound 50, 2-{2′-Ethyl-7′-oxo-6′,7′-dihydro-5′H-spiro[cyclopropane-1,4′-thieno[2,3-c]pyridin]-6′-yl}-N-(pyrimidin-4-yl)acetamide], `CCc1cc2c(s1)C(=O)N(CC(=O)Nc1ccc(C#N)cn1)CC21CC1` [Compound 55, N-(5-Cyanopyridin-2-yl)-2-{2′-ethyl-7′-oxo-6′,7′-dihydro-5′H-spiro[cyclopropane-1,4′-thieno[2,3-c]pyridin]-6′-yl}acetamide] is higher in IC50: 0.1 to 1 µM for the first, 1 to 3 µM for the second.

First: CCc1cc2c(s1)C(=O)N(CC(=O)Nc1ncc(-n3cccn3)cn1)CC21CC1 [Compound 52, 2-{2′-Ethyl-7′-oxo-6′,7′-dihydro-5′H-spiro[cyclopropane-1,4′-thieno[2,3-c]pyridin]-6′-yl}-N-[5-(1H-pyrazol-1-yl)pyrimidin-2-yl]acetamide]
Second: CCc1cc2c(s1)C(=O)N(CC(=O)Nc1ncc(Cl)cn1)CC21CC1 [Compound 54, N-(5-Chloropyrimidin-2-yl)-2-{2′-ethyl-7′-oxo-6′,7′-dihydro-5′H-spiro[cyclopropane-1,4′-thieno[2,3-c]pyridin]-6′-yl}acetamide]
The IC50 of the first is higher: 1 to 3 µM for the first, 0.1 to 1 µM for the second. The second is the more potent here.

`CCc1cc2c(s1)C(=O)N(CC(=O)Nc1ncc([N+](=O)[O-])cn1)CC21CC1` [Compound 53, 2-{2′-Ethyl-7′-oxo-6′,7′-dihydro-5′H-spiro[cyclopropane-1,4′-thieno[2,3-c]pyridin]-6′-yl}-N-(5-nitropyrimidin-2-yl)acetamide] and `CCc1cc2c(s1)C(=O)N(CC(=O)Nc1ncc(O)cn1)CC21CC1` [Compound 62, 2-{2′-Ethyl-7′-oxo-6′,7′-dihydro-5′H-spiro[cyclopropane-1,4′-thieno[2,3-c]pyridin]-6′-yl}-N-(5-hydroxypyrimidin-2-yl)acetamide] fall in the same range of IC50: 0.1 to 1 µM for the first, 0.1 to 1 µM for the second.

`CCc1cc2c(s1)C(=O)N(CC(=O)Nc1ncc(C(F)(F)F)cc1F)CC21CC1` [Compound 56, 2-{2′-Ethyl-7′-oxo-6′,7′-dihydro-5′H-spiro[cyclopropane-1,4′-thieno[2,3-c]pyridin]-6′-yl}-N-[3-fluoro-5-(trifluoromethyl)pyridin-2-yl]acetamide] and `CCc1cc2c(s1)C(=O)N(CC(=O)Nc1ncc(Cl)cc1F)CC21CC1` [Compound 57, N-(5-Chloro-3-fluoropyridin-2-yl)-2-{2′-ethyl-7′-oxo-6′,7′-dihydro-5′H-spiro[cyclopropane-1,4′-thieno[2,3-c]pyridin]-6′-yl}acetamide] fall in the same range of IC50: 1 to 3 µM for the first, 1 to 3 µM for the second.

First: O=C(CN1CC2(CC2)c2oc(C3CC3)cc2C1=O)Nc1ccc2nncn2c1 [Compound 58, 2-{2′-Cyclopropyl-4′-oxo-5′,6′-dihydro-4′H-spiro[cyclopropane-1,7′-furo[3,2-c]pyridin]-5′-y}—N-{[1,2,4]triazolo[4,3-a]pyridin-6-yl}acetamide]
Second: O=C(CN1CC2(CC2)c2oc(C3CC3)cc2C1=O)Nc1ccc2nncn2n1 [Compound 59, 2-{2′-Cyclopropyl-4′-oxo-5′,6′-dihydro-4′H-spiro[cyclopropane-1,7′-furo[3,2-c]pyridin]-5′-yl}-N-{[1,2,4]triazolo[4,3-b]pyridazin-6-yl}acetamide]
The IC50 of the first is higher: 3 to 10 µM for the first, 0.1 to 1 µM for the second.

`CCc1cc2c(s1)C(=O)N(CC(=O)Nc1ncc(N)cn1)CC21CC1` [Compound 60, N-(5-Aminopyrimidin-2-yl)-2-{2′-ethyl-7′-oxo-6′,7′-dihydro-5′H-spiro[cyclopropane-1,4′-thieno[2,3-c]pyridin]-6′-yl}acetamide] and `CCc1cc2c(s1)C(=O)N(CC(=O)Nc1ncc(C#N)cn1)CC21CC1` [Compound 63, N-(5-Cyanopyrimidin-2-yl)-2-{2′-ethyl-7′-oxo-6′,7′-dihydro-5′H-spiro[cyclopropane-1,4′-thieno[2,3-c]pyridin]-6′-yl}acetamide] fall in the same range of IC50: 0.1 to 1 µM for the first, 0.1 to 1 µM for the second.

First: CC1CN(CC(=O)Nc2ncccn2)C(=O)c2cc(C3CC3)oc21 (stereo not drawn) [Compound 65, 2-(2-Cyclopropyl-7-methyl-4-oxo-6,7-dihydrofuro[3,2-c]pyridin-5(4H)-yl)-N-(pyrimidin-2-yl)acetamide]
Second: CC1CN(CC(=O)Nc2ncccn2)C(=O)c2cc(C3CC3)sc21 (stereo not drawn) [Compound 70, 2-(2-Cyclopropyl-7-methyl-4-oxo-6,7-dihydrothieno[3,2-c]pyridin-5(4H)-yl)-N-(pyrimidin-2-yl)acetamide]
The IC50 of the first is lower: 0.1 to 1 µM for the first, 3 to 10 µM for the second.

First: CCc1cc2c(s1)C(=O)N(CC(=O)Nc1ncc(C#N)cc1F)CC21CC1 [Compound 66, N-(5-cyano-3-fluoropyridin-2-yl)-2-(2′-ethyl-7′-oxo-5′H-spiro[cyclopropane-1,4′-thieno[2,3-c]pyridin]-6′(7′H)-yl)acetamide]
Second: CCc1cc2c(s1)C(=O)N(CC(=O)Nc1ncc3c(n1)[nH]c(=O)n3C)CC21CC1 [Compound 71, 2-(2′-Ethyl-7′-oxo-5′H-spiro[cyclopropane-1,4′-thieno[2,3-c]pyridin]-6′(7′H)-yl)-N-(7-methyl-8-oxo-8,9-dihydro-7H-purin-2-yl)acetamide]
The IC50 of the first is lower: 0.1 to 1 µM for the first, 1 to 3 µM for the second.

First: CC1CN(CC(=O)Nc2ncccn2)C(=O)c2cc3scnc3n21 (stereo not drawn) [Compound 67, 2-(5-Methyl-8-oxo-5,6-dihydrothiazolo[5′,4′:4,5]pyrrolo[1,2-a]pyrazin-7(8H)-yl)-N-(pyrimidin-2-yl)acetamide]
Second: CCc1cc2c(s1)C(C)CN(CC(=O)Nc1ncccn1)C2=O (stereo not drawn) [Compound 69]
The IC50 of the first is lower: 0.1 to 1 µM for the first, 1 to 3 µM for the second.

In the case of `CNc1nc2c(s1)C(=O)N(CC(=O)Nc1ncccn1)CC21CC1` [Compound 72, 2-(2′-(Methylamino)-4′-oxo-4′H-spiro[cyclopropane-1,7′-thiazolo[5,4-c]pyridin]-5′(6′H)-yl)-N-(pyrimidin-2-yl)acetamide], the IC50 is reported as 3 to 10 µM.
